According to patent US7192746B2, “α-Isomaltosyltransferase, process for producing the same and use thereof” (Kabushiki Kaisha Hayashibara Seibutsu Kagaku Kenkyujo, priority 2000, dated 2007):

Tests used:
Assay type in all cases: biochemical
[1] = system: α-isomaltosyl-transferring enzyme from Bacillus globisporus C9; assay: Action on saccharides (substrates, TLC); parameters: key: −: there was found no substrate change before and after the enzymatic reaction; +: there were found both the reduction of substrate and the formation of cyclotetrasaccharide after the enzymatic reaction; conditions: 2 units/g substrate, 2% (w/v) substrate, 30° C., pH 6.0, 24 hours
Method in brief: (§1)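 Substrates 2% (w/v), enzyme 2 units/g substrate, pH 6.0, 30° C., 24 h. Read-out: silica TLC, n-butanol:pyridine:water 6:4:1; sulfuric acid-methanol (total sugar) and diphenylamine-aniline (reducing sugar) staining, pre- vs post-reaction.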

[2] = system: α-isomaltosyl-transferring enzyme from Arthrobacter ramosus S1; assay: Action on saccharides (substrates, TLC); parameters: key: −: there was found no substrate change before and after the enzymatic reaction; +: there were found both the reduction of substrate and the formation of cyclotetrasaccharide after the enzymatic reaction; conditions: 2 units/g substrate, 2% (w/v) substrate, 30° C., pH 6.0, 24 hours
Method in brief: as §1

[3] = system: α-isomaltosyl-transferring enzyme from Bacillus globisporus N75; assay: Action on saccharides (substrates, TLC); parameters: key: −: there was found no substrate change before and after the enzymatic reaction; +: there were found both the reduction of substrate and the formation of cyclotetrasaccharide after the enzymatic reaction; conditions: 2 units/g substrate, 2% (w/v) substrate, 30° C., pH 6.0, 24 hours
Method in brief: as §1

[4] = system: α-isomaltosyl-transferring enzyme from Bacillus globisporus C11; assay: Action on saccharides (substrates, TLC); parameters: key: −: there was found no substrate change before and after the enzymatic reaction; +: there were found both the reduction of substrate and the formation of cyclotetrasaccharide after the enzymatic reaction; conditions: 2 units/g substrate, 2% (w/v) substrate, 30° C., pH 6.0, 24 hours
Method in brief: as §1

[5] = system: α-isomaltosyl-transferring enzyme from Arthrobacter globiformis A19; assay: Action on saccharides (substrates, TLC); parameters: key: −: there was found no substrate change before and after the enzymatic reaction; +: there were found both the reduction of substrate and the formation of cyclotetrasaccharide after the enzymatic reaction; conditions: partially purified enzyme, 2 units/g substrate, 2% (w/v) substrate, 30° C., pH 6.0, 24 hours
Method in brief: as §1

[6] = system: α-isomaltosyl-transferring enzyme from Bacillus globisporus C9; assay: Specificity to transferring acceptor; conditions: panose as saccharide donor, 10 units/g substrate, 3.2% (w/v), 30° C., pH 6.0, 24 hours
Method in brief: (§2)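 Each candidate acceptor was mixed with panose donor at equal concentration, then given 10 units/g substrate of enzyme (purified, or partially purified for strain A19) at 3.2% (w/v) total saccharide. Reactions ran 24 hours at 30° C., pH 6.0, and were scored for presence or absence of transfer product.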

[7] = system: α-isomaltosyl-transferring enzyme from Arthrobacter ramosus S1; assay: Specificity to transferring acceptor; conditions: panose as saccharide donor, 10 units/g substrate, 3.2% (w/v), 30° C., pH 6.0, 24 hours
Method in brief: as §2

[8] = system: α-isomaltosyl-transferring enzyme from Bacillus globisporus N75; assay: Specificity to transferring acceptor; conditions: panose as saccharide donor, 10 units/g substrate, 3.2% (w/v), 30° C., pH 6.0, 24 hours
Method in brief: as §2

[9] = system: α-isomaltosyl-transferring enzyme from Bacillus globisporus C11; assay: Specificity to transferring acceptor; conditions: panose as saccharide donor, 10 units/g substrate, 3.2% (w/v), 30° C., pH 6.0, 24 hours
Method in brief: as §2

[10] = system: α-isomaltosyl-transferring enzyme from Arthrobacter globiformis A19; assay: Specificity to transferring acceptor; conditions: partially purified enzyme, panose as saccharide donor, 10 units/g substrate, 3.2% (w/v), 30° C., pH 6.0, 24 hours
Method in brief: as §2

SMILES	Enzymatic action for forming cyclotetrasaccharide, Enzyme of Strain C9 [1]	Enzymatic action for forming cyclotetrasaccharide, Enzyme of Strain S1 [2]	Enzymatic action for forming cyclotetrasaccharide, Enzyme of Strain N75 [3]	Enzymatic action for forming cyclotetrasaccharide, Enzyme of Strain C11 [4]	Enzymatic action for forming cyclotetrasaccharide, Enzyme of Strain A19 [5]	Product of transferring reaction, Enzyme of Strain C9 [6]	Product of transferring reaction, Enzyme of Strain S1 [7]	Product of transferring reaction, Enzyme of Strain N75 [8]	Product of transferring reaction, Enzyme of Strain C11 [9]	Product of transferring reaction, Enzyme of Stain A19 [10]
OC[C@H]1O[C@H](O[C@H]2[C@H](O)[C@@H](O)[C@@H](O[C@H]3[C@H](O)[C@@H](O)[C@@H](O[C@H]4[C@H](O)[C@@H](O)C(O)O[C@@H]4CO)O[C@@H]3CO)O[C@@H]2CO)[C@H](O)[C@@H](O)[C@@H]1O (some centres unmarked) [Maltotetraose, maltotetraose]	−	−	−	−	−	+ (a saccharide-transferred product was formed in an amount of over one percent but below 10% to the total sugars)	+ (a saccharide-transferred product was formed in an amount of over one percent but below 10% to the total sugars)	+ (a saccharide-transferred product was formed in an amount of over one percent but below 10% to the total sugars)	+ (a saccharide-transferred product was formed in an amount of over one percent but below 10% to the total sugars)	+ (a saccharide-transferred product was formed in an amount of over one percent but below 10% to the total sugars)
OC[C@@H](O)[C@@H](O[C@H]1O[C@H](CO)[C@@H](O[C@H]2O[C@H](CO)[C@@H](O)[C@H](O)[C@H]2O)[C@H](O)[C@H]1O)[C@H](O)[C@@H](O)CO [Maltotriitol, maltotriitol]	−	−	−	−	−	+ (a saccharide-transferred product was formed in an amount of over one percent but below 10% to the total sugars)	+ (a saccharide-transferred product was formed in an amount of over one percent but below 10% to the total sugars)	+ (a saccharide-transferred product was formed in an amount of over one percent but below 10% to the total sugars)	+ (a saccharide-transferred product was formed in an amount of over one percent but below 10% to the total sugars)	+ (a saccharide-transferred product was formed in an amount of over one percent but below 10% to the total sugars)
OC[C@H]1O[C@H](O[C@H]2[C@H](O)[C@@H](CO)OC(O)[C@@H]2O)[C@H](O)[C@@H](O)[C@@H]1O (some centres unmarked) [Nigerose, nigerose]	−	−	−	−	−	+ (a saccharide-transferred product was formed in an amount of over one percent but below 10% to the total sugars)	+ (a saccharide-transferred product was formed in an amount of over one percent but below 10% to the total sugars)	+ (a saccharide-transferred product was formed in an amount of over one percent but below 10% to the total sugars)	+ (a saccharide-transferred product was formed in an amount of over one percent but below 10% to the total sugars)	+ (a saccharide-transferred product was formed in an amount of over one percent but below 10% to the total sugars)
OC[C@H]1O[C@@](CO)(O[C@H]2O[C@H](CO)[C@@H](O)[C@H](O)[C@H]2O)[C@@H](O)[C@@H]1O [Sucrose, sucrose]	−	−	−	−	−	+ (a saccharide-transferred product was formed in an amount of over one percent but below 10% to the total sugars)	+ (a saccharide-transferred product was formed in an amount of over one percent but below 10% to the total sugars)	+ (a saccharide-transferred product was formed in an amount of over one percent but below 10% to the total sugars)	+ (a saccharide-transferred product was formed in an amount of over one percent but below 10% to the total sugars)	+ (a saccharide-transferred product was formed in an amount of over one percent but below 10% to the total sugars)
OC[C@H]1O[C@H](O[C@H]2O[C@H](CO)[C@@H](O)[C@H](O)[C@H]2O)[C@H](O)[C@@H](O)[C@@H]1O [α,α-Trehalose, α,α-trehalose]	−	−	−	−	−	+ (a saccharide-transferred product was formed in an amount of over one percent but below 10% to the total sugars)	+ (a saccharide-transferred product was formed in an amount of over one percent but below 10% to the total sugars)	+ (a saccharide-transferred product was formed in an amount of over one percent but below 10% to the total sugars)	+ (a saccharide-transferred product was formed in an amount of over one percent but below 10% to the total sugars)	+ (a saccharide-transferred product was formed in an amount of over one percent but below 10% to the total sugars)
